From patent publication US20250082624A1, “METHODS OF TREATING COGNITIVE IMPAIRMENT” (NeuroTherapia, Inc., priority 2023, published 2025) come the findings set out here.

Values joined by “and” are separate entries in the source; they are usually repeats but may differ in a detail not shown here. Equal values may be shown once. “Also recorded” adds a separate entry of the source.

Format in all cases: in vivo, human
Data set [1] relates to volunteers and AD patients. Nature of the data set: Orthostatic blood pressure and vertigo tests (timed get-up and go, Nystagmus test, Romberg test). As to conditions: Phase 1b. As to the method:
(§1) Assessments: Subjects were assessed for changes in vital signs, orthostatic blood pressure, Romberg test, nystagmus, timed get up and go, electrocardiograms, electroencephalograms (EEG), and laboratory studies. Subjective questionnaires of drug effects (ARCI-M) were administered. Cohort B returned and received a single repeat dose after a standard high-fat meal. The AD cohort also underwent cognitive testing (MMSE, ADAS-COG, MOCA) and had blood samples for biomarkers drawn.
An informational letter was filed with the FDA to inform them of this study. The study was designed as follows: • 3 healthy cohorts (cohorts A-C) followed by AD cohort (cohort D) treated at MTD • 6 treated, 2 placebos in each cohort • Doses: 10, 30, 90 mg/treatment—latter doses can be adjusted based on PK assessment • In unit, 7 days of treatment • Monitor vertigo with various tests: (1) timed get-up and go, (2) Nystagmus test, (3) Romberg test, and (4) changes in orthostatic blood pressure (Day 1, 3 and 8) • Use 24 hr EEG monitoring for CNS safety assessment • Assess plasma biomarkers of inflammation and AD pre- and post-treatment in AD cohort • Assess changes on cognition post-treatment using MMSE and ADAS-cog • Fed/fasted study to determine food effects on PK as a subset of the Phase 1b

Data set [2] relates to AD cohort. Kind of data set: Cognitive testing MOCA / MMSE in AD cohort. Details: MOCA / MOCA Mean (StdDev): scale not given here. As to conditions: 90 mg QD 7 days.
Source text: Methods: All study procedures were approved by the IRB, and informed consent was obtained. Three cohorts of volunteers 45-80 years of age with well-controlled comorbidities (NOAD) and one cohort of AD patients diagnosed with cognitive impairment consistent with prodromal AD per International Working Group criteria or mild AD per National Institute on Aging—Alzheimer's Association criteria (n=6 active, 2 placebo per cohort) were enrolled. Participants were admitted to the study site for the duration of the dosing and returned 7-12 days after the last dose for a safety visit. Participants received NTRX-07 (10, 30, or 90 mg) or a placebo in a double-blinded randomization orally once daily for seven days. Subjects were assessed for changes in vital signs, including maneuvers to induce lightheadedness, electrocardiograms, 24-hour electroencephalograms (EEG), and safety laboratory studies. The second cohort returned and received a single repeat dose after a standard high-fat meal. The AD cohort also underwent cognitive testing and had blood samples for biomarkers drawn. Subjects had PK sampling done after the first and final dose of the study drug. An independent safety review committee conducted a blinded safety review of adverse events and plasma levels between each cohort.
as §1
Exploratory endpoints include cognitive testing and potential plasma biomarkers of inflammation. The small group size (6 on treatment, 2 placebo) precludes statistical analysis, but the goals were to gain insights for future study design. Exploratory endpoints include: • MMSE, MOCA & ADAS-COG • IL-12p70, IL-10, IL-4, IL-5, INFg, IL-6, IL-8, IL-22, TNFa, IL-10, hCRP, Chitinase-3, TREM-2, IL-2, Neurogranin, Total Tau, AB42, AB40, NF-LIGHT, pTau-181

In data set [3] the test system is healthy volunteers. Kind of data set: Phase 1a single ascending dose study.

`CC1(Cc2ccccc2)COc2cc(C(=O)N3CCCCC3)ccc21` (stereo not shown) [NTRX-07, 3-benzyl-3-methyl-2,3-dihydrobenzofuran-6-carboxylic acid-piperidine amide]: in data set [1] (individual subjects on NTRX-07 (Cohort B 30 mg, C and D 90 mg QD)), the “Orthostatic events observed during trial: Severity” value is “Mild”. Also, in data set [1] (usually with early doses), the “Primary side effect observed” value is recorded as “mild transient orthostatic changes in blood pressure”. Moreover, in data set [1] (treated subjects), the “Orthostasis: Incidences” value turned out to be 16.7%. The “Orthostasis: Subjects who had an incident” value in data set [1] (treated subjects) worked out at 16.7%. Also, the “Changes in cognitive scores (MMSE, MOCA)” value in data set [2] is “No significant changes in cognitive scores; also recorded: No appreciable changes”. Also, the figures for the “MOCA Mean (StdDev)” value in data set [2] (Day 8), in data set [2] (Day −2 (baseline)) and in data set [2] (EOS Day 14-19) were 19.7 ± 1.8, 20.5 ± 2.6 and 20.7 ± 3.5, respectively. In addition, the MOCA in data set [2] (Day 8, individual subjects) is 22 and 21 and 19 and 20 and 17; in data set [2] (Day −2 (baseline), individual subjects), 22 and 21 and 24 and 18 and 17; in data set [2] (EOS Visit (Day 14-19), individual subjects), 25 and 15 and 20 and 23 and 22 and 19. Also, the “No adverse events level” value in data set [3] (Phase 1a single ascending dose) was 2 mg/kg. The “Adverse events in Phase 1a” value in data set [3] (single ascending dose) is reported as “Only minor, non-dose limiting adverse events”.
